# Patent US20100093867A1, “Method Of Treating Genetic Disease Caused By Nonsense Mutation” (priority 2006, published 2010)
# Columns and labels:
# [1] = tested on: mouse models for muscular dystrophy; conditions: Patent document 1; cited from earlier work
# [2] = tested on: mdx mouse; assay: Side effects in mice; type: in vivo; conditions: subcutaneous, 4 or 400 mg/kg/day for 14 days
# Method: The aforementioned compound 2 was studied for side effects in mice.
# The compound 2 was injected subcutaneously to an mdx mouse at a dose of 4 or 400 mg/kg/day for 14 days.
# [3] = tested on: mdx mouse; assay: Effect of administration on a muscular dystrophy mouse model; type: in vivo; conditions: into the stomach, 4 or 400 mg/kg/day for 7 days
# Method: The aforementioned compound 2 was studied for its effect of administration on a muscular dystrophy mouse model. An mdx mouse was used as a muscular dystrophy mouse model. The compound 2 was administered forcibly into the stomach of an mdx mouse at a dose of 4 or 400 mg/kg/day for 7 days, and then biochemical and immuno-histochemical analyses were conducted.
# [4] = tested on: airway epithelium of patients with cystic fibrosis; conditions: topical administration to airway epithelium, Non-patent document 2; cited from earlier work
# [5] = tested on: patients with Duchenne muscular dystrophy; conditions: Non-patent document 1; cited from earlier work
molecule,measurement,setting,value
CN(CC(=O)O)NC(=O)C[C@H](N)C[C@@H](O)CN [negamycin],dystrophin expression,[1],restore a dystrophin expression
CC(=O)NC(CC(N)=O)C(=O)O (stereo not drawn) [compound 2],body weight during the administration period,[2],no decrease
same,hearing test that measures auditory brainstem response,[2],no abnormal values
same,eighteen serological and biochemical tests,"[2]; total protein, albumin, AST, ALT, ALP, γ-GTP, creatinine, glucose, lipids, electrolytes, bilirubin etc.",no abnormal values
same,results compared to positive control group administered with gentamicin,[3],favorable results compared to a positive control group administered with gentamicin
same,serum creatine kinase activity,[3],reduced
same,dystrophin in muscles (e.g. hind limb),[3]; immuno-histochemical analysis,accumulated
gentamicin,typical electrophysiological abnormalities,[4],could correct
same,dystrophin protein,[5],led to accumulation of dystrophin protein
